# Reference: paper PMC8151276, “An Integrated Approach toward NanoBRET Tracers for Analysis of GPCR Ligand Engagement” (Molecules, 2021)
# Target: T1, DRD4 (Homo sapiens, UniProt P21917)
# T1 construct: purchased Promega (in-house HiBiT-GPCR construct library, NanoBRET)
# T1 sequence (P21917 1-419): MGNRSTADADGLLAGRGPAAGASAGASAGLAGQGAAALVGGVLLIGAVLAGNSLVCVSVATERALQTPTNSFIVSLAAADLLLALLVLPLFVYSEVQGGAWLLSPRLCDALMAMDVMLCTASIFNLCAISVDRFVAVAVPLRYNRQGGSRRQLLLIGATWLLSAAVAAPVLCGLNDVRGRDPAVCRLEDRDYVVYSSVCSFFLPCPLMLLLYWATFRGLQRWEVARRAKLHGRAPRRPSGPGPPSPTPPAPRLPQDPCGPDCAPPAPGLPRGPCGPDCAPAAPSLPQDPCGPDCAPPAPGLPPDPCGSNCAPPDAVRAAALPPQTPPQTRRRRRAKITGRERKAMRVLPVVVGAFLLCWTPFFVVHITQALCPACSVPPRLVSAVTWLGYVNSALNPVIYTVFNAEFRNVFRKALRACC
# Assay: NanoBRET screen HiBiT-DRD4 in HEK293
# Type: binding
# Protocol: Each tracer candidate was screened across the entire library of HiBiT-GPCR constructs using NanoBRET as the detection modality. As depicted in Figure 4A, the specificity of interactions was evaluated through decrease in BRET due to competitive displacement of a bound tracer by excess parental compound. Each tracer was analyzed for binding to each HiBiT-GPCR fusion in the absence and in the presence of competing parental compound. Briefly, HEK293 cells were transfected with HiBiT-GPCR constructs diluted into promoterless DNA to reduce expression and maximize translocation to the cell surface. Each tracer candidate was then screened at concentrations of 1 μM and 0.1 μM across cells expressing these fusions. Cells were treated for 1.5 h with tracer either alone or in the presence of 20 μM competing parental compound (i.e., control). BRET was measured upon addition of purified LgBiT and subsequent complementation with HiBiT genetically fused to a GPCR. The specificity of interactions was assessed through a decrease in BRET signal due to competitive displacement of the bound tracer. To further gauge the robustness of these interactions, the fold response over the control (i.e., BRETtracer/BRETcontrol) was calculated. We chose a 1.5-fold response, which translates to ≥7-fold signal over noise as the minimal threshold required to score an interaction as positive.
# HiBiT-GPCR DNA constructs were diluted in 10 mM Tris pH 8 to a final concentration of 0.01 μg/μL, arrayed in 96-well plates and stored at −20 °C. For transfection, HEK293 cells were suspended in Opti-MEM (without phenol red) supplemented with 2% fetal bovine serum (Seradigm) and 100 units/mL penicillin–streptomycin (Gibco) at a final concentration of 220,000 cells/mL and dispensed into white 96-well plates at 90 μL/well. Subsequent transfections and screens were carried using an Agilent Bravo Automated Liquid Handling Platform. First, the 96-well HiBiT DNA arrays were diluted 25-fold in Opti-MEM (without serum or phenol red) to a final concentration of 0.0004 μg/μL and 20 μL of the diluted DNAs were transferred into new 96-well plates. Next, promoterless carrier DNA (1 μg/μL) was diluted 25-fold (0.04 μg/μL) and then dispensed into the diluted arrays at 20 μL/well. Following brief mixing, Viafect transfection reagent (Promega) diluted 16-fold into Opti-MEM was dispensed into the plates at 40 μL/well. After mixing by pipetting, plates were incubated for 10 min on the pipetting station deck. The DNA-transfection reagent complexes were then added to plates containing cells. To facilitate the screen, 10 μL of DNA-transfection reagent complexes were added in duplicates to the top 4 and bottom 4 rows, resulting in two identical 48-well arrays per plate. Plates with transfected cells were incubated for 18–20 h at 37 °C/5% CO2. A screen of each tracer across the entire library using two different concentrations requires duplicate plates of transfected cells. Depending on the number of tracers being screened, transfections can be scaled up using the same ratios. The next day, for each tracer, four 20× screening solutions in tracer dilution buffer (Promega) were prepared: two duplicates at final concentration of 20 μM and two duplicates at a final concentration of 2 μM. […] The four resulting solutions were diluted 4-fold in Opti-MEM without serum or phenol red to generate 5× solutions (5 µM and 0.5 µM tracer +/− 100 μM competing compound). To screen the library, a BioTek MultiFlo FX liquid dispenser was used to dispense 22.5 µL of tracer solution to the top 4 rows and 22.5 µL tracer + competing compound solution to the 4 bottom rows. Plates were briefly mixed on an orbital shaker and incubated for 1.5 h at room temperature. […] Plates were briefly mixed on an orbital shaker and incubated for 15 min to allow complementation.
SMILES,"NanoBRET Fold Response (DRD4, tracer 0.1μM)","NanoBRET Fold Response (DRD4, tracer 1μM)",other results
O=C(CCc1ccc2n1[B-](F)(F)[N+]1=C(c3ccc[nH]3)C=CC1=C2)NCc1ccc(C(=O)NCCOCCC(=O)N[C@@H]2CC[C@@]3(O)[C@H]4Cc5ccc(O)c6c5[C@@]3(CCN4CC3CC3)[C@H]2O6)cc1 [Naltrexone-3-NB590],0.82,1.11,
O=C(CCOCCOCCOCCOCCNC(=O)CCc1ccc2n1[B-](F)(F)[N+]1=C(c3ccc[nH]3)C=CC1=C2)NCCCN1CCN(C2=Nc3cc(Cl)ccc3Nc3ccccc32)CC1 [Clozapine-a-2-NB590],,,"NanoBRET Fold Response (DRD4, 0.1μM tracer): 3.46; NanoBRET Fold Response (DRD4, 1μM tracer): 3.88"
CCOC(=O)c1cc(C#N)c(N2CCC(C(=O)NS(=O)(=O)Cc3ccccc3/C=C/C(=O)NCCNC(=O)CCc3ccc4n3[B-](F)(F)[N+]3=C(c5ccc[nH]5)C=CC3=C4)CC2)nc1C [AZD1283-1-NB590],,,"NanoBRET Fold Response (DRD4, 0.1μM): 1.05; NanoBRET Fold Response (DRD4, 1μM): 1.13"
COc1ccc2[nH]c(-c3ccc(CNC(=O)CCOCCOCCOCCOCCNC(=O)CCc4ccc5n4[B-](F)(F)[N+]4=C(c6ccc[nH]6)C=CC4=C5)cc3)c(CCNC(C)=O)c2n1 [AzomelatoninICO9-2-NB590],,,NanoBRET Fold Response (0.1μM tracer): 0.59; NanoBRET Fold Response (1μM tracer): 0.88
CCCn1c(=O)c2[nH]c(-c3ccc(OCC(=O)NCCNC(=O)CCOCCNC(=O)c4ccc(CNC(=O)CCc5ccc6n5[B-](F)(F)[N+]5=C(c7ccc[nH]7)C=CC5=C6)cc4)cc3)nc2n(CCC)c1=O [XAC-3-NB590],1.27,0.82,
COc1ccccc1N1CCN(CCCCN2C(=O)c3ccc(CNC(=O)CCOCCNC(=O)c4ccc(CNC(=O)CCc5ccc6n5[B-](F)(F)[N+]5=C(c7ccc[nH]7)C=CC5=C6)cc4)cc3C2=O)CC1 [NAN-190-3-NB590],1.23,1.92,
CN(CCC=C1c2ccccc2CCc2ccccc21)C(=O)CCOCCOCCOCCOCCNC(=O)CCc1ccc2n1[B-](F)(F)[N+]1=C(c3ccc[nH]3)C=CC1=C2 [Amitriptyline-e-2-NB590],,,NanoBRET Fold Response (tracer at 1μM): 1.01
O=C(CCc1ccc2n1[B-](F)(F)[N+]1=C(c3ccc[nH]3)C=CC1=C2)NCc1ccc(C(=O)NCCOCCOCCNCC(O)COc2cccc3ccccc23)cc1 (centres unmarked) [Propranolol-3-NB590],,,"NanoBRET Fold Response (DRD4, 0.1μM): 0.84; NanoBRET Fold Response (DRD4, 1μM): 0.99"
COc1ccc2c(n1)c(CCNC(C)=O)cn2CCNC(=O)CCc1ccc2n1[B-](F)(F)[N+]1=C(c3ccc[nH]3)C=CC1=C2 [Azamelatonin-1-NB590],,,NanoBRET Fold Response (0.1μM tracer): 0.77; NanoBRET Fold Response (1μM tracer): 1.03
O=C(CCOCCOCCOCCOCCNC(=O)CCc1ccc2n1[B-](F)(F)[N+]1=C(c3ccc[nH]3)C=CC1=C2)NCCCN1CCN(C2=Nc3ccccc3Oc3ccc(Cl)cc32)CC1 [Loxapine-a-2-NB590],1.57,2.56,
N#CN/C(=N\CCNC(=O)c1ccc(N)cc1)NCCCOc1cccc(CN2CCCCC2)c1 [Aminopotentidine (unmodified)],,,"NanoBRET Fold Response (DRD4, other tracers/Aminopotentidine (unmodified), 0.1μM): 1.24; NanoBRET Fold Response (DRD4, other tracers/Aminopotentidine (unmodified), 1μM): 1.17"
COc1ccccc1N1CCN(CCCCN2C(=O)c3ccc(CNC(=O)CCOCCOCCOCCOCCNC(=O)CCc4ccc5n4[B-](F)(F)[N+]4=C(c6ccc[nH]6)C=CC4=C5)cc3C2=O)CC1 [NAN-190-2-NB590],1.09,1.80,
CC(C)N(CC[C@H](c1ccccc1)c1cc(CCNC(=O)c2ccc(CNC(=O)CCc3ccc4n3[B-](F)(F)[N+]3=C(c5ccc[nH]5)C=CC3=C4)cc2)ccc1O)C(C)C [Tolterodine-BZ-NB590],0.94,1.09,
O=C(CCc1ccc2n1[B-](F)(F)[N+]1=C(c3ccc[nH]3)C=CC1=C2)NCCOCCOCCNC(=O)OCCOCCN1CCN(C2=Nc3ccccc3Sc3ccccc32)CC1 [Quetiapine-a-2-NB590],1.05,1.49,
CC(C)N(CC[C@H](c1ccccc1)c1cc(CCNC(=O)CCOCCOCCOCCOCCNC(=O)CCc2ccc3n2[B-](F)(F)[N+]2=C(c4ccc[nH]4)C=CC2=C3)ccc1O)C(C)C [Tolterodine-2-NB590],0.99,0.96,
CN(C)CCC=C1c2ccccc2CCc2ccc(C(=O)NCCNC(=O)CCOCCOCCOCCOCCNC(=O)CCc3ccc4n3[B-](F)(F)[N+]3=C(c5ccc[nH]5)C=CC3=C4)cc21 [Amitriptyline-a-2-NB590],,,NanoBRET Fold Response (tracer at 0.1μM): 1.07; NanoBRET Fold Response (tracer at 1μM): 1.09
Cc1cc2c(s1)Nc1ccccc1N=C2N1CCN(CCCNC(=O)CCOCCOCCOCCOCCNC(=O)CCc2ccc3n2[B-](F)(F)[N+]2=C(c4ccc[nH]4)C=CC2=C3)CC1 [Olanzapine-a-2-NB590],1.68,2.27,
N#CN=C(NCCCOc1cccc(CN2CCCCC2)c1)NCCNC(=O)CCOCCOCCOCCOCCNC(=O)CCc1ccc2n1[B-](F)(F)[N+]1=C(c3ccc[nH]3)C=CC1=C2 [Aminopotentidine-2-NB590],1.00,0.98,
Cc1nc2n(c(=O)c1CCN1CCC(c3noc4cc(F)ccc34)CC1)CCCC2OC(=O)NCCOCCOCCOCCOCCNC(=O)CCc1ccc2n1[B-](F)(F)[N+]1=C(c3ccc[nH]3)C=CC1=C2 (centres unmarked) [Risperidone-2-NB590],1.55,3.40,
CN(C)CCC=C1c2ccccc2CCc2ccc(C(=O)NCCNC(=O)CCOCCOCCOCCOCCNC(=O)CCc3ccc4n3[B-](F)(F)[N+]3=C(c5ccc[nH]5)C=CC3=C4)cc21 [Amitriptyline-b-2-NB590],,,"NanoBRET Fold Response (tracer at 0.1μM, listed as amitriptyline-b-2-NB590): 1.05"
